This is an account of results in publication PMC12040169 (PLOS Biology, 2025).

The series in a line: in vitro. Particulars: human, hela cells, % viability.
Take `CN1C(=O)COc2ccccc2C/C=C/C[C@@H]2[C@H]1CCCN2C(=O)Cn1ccc(=O)[nH]c1=O` [CBK292093]: the viability at 28.5 h, 10 µM was determined as 102%. For the compound `O=C1NC/C=C/CC2(CCN(Cc3ccccc3)CC2)C(=O)NCCOc2ccccc21` [CBK292097], the viability at 28.5 h, 10 µM was found to be 103%. Regarding `CN1C(=O)COc2ccccc2CCCC[C@@H]2[C@H]1CCCN2CC(N)=O` [CBK292098], the viability at 28.5 h, 10 µM is 105%. Take `Cc1ccc(=O)n(CC(=O)N2CCC[C@@H]3NC(=O)c4ccccc4OCCCCC[C@@H]32)n1` [CBK292100]: the viability at 28.5 h, 10 µM amounted to 94%.

`CC(=O)N1CC[C@H]2NC(=O)CNC(=O)C3(CCCC[C@H]2C1)CCN(C(=O)COc1ccccc1)CC3` [CBK292101]: the viability at 28.5 h, 10 µM worked out at 100%.

`CNC(=O)CN1CCC[C@@H]2NC(=O)c3ccccc3OCCCCC[C@@H]21` [CBK292104]: the viability at 28.5 h, 10 µM amounted to 104%.

As for `O=C1NCCNC(=O)C2(CCCCOc3ccccc31)CCN(C(=O)c1ccnnc1)CC2` [CBK292105], the viability at 28.5 h, 10 µM is 107%. On to `CC(=O)N1CCC2(C/C=C/C[C@H]3CN(C(=O)C4CCC4)CC[C@H]3NC(=O)CNC2=O)CC1` [CBK292108], for which the viability at 28.5 h, 10 µM turned out to be 105%.

Take `CN1C(=O)COc2ccccc2CCCC[C@@H]2[C@H]1CCCN2C(=O)c1cc(=O)[nH]c(=O)[nH]1` [CBK292110]: the viability at 28.5 h, 10 µM turned out to be 83.3%. On to `CN1C(=O)COc2ccccc2CCCC[C@@H]2[C@H]1CCCN2CCO` [CBK292112], for which the viability at 28.5 h, 10 µM came to 103%. With `Cc1nc(CC(=O)N2CCC[C@@H]3NC(=O)c4ccccc4OCCCCC[C@@H]32)cs1` [CBK292113], the viability at 28.5 h, 10 µM turned out to be 102%. As for `CC(=O)N1CCC2(CCCC[C@H]3CN(C(=O)CCC(C)C)CC[C@@H]3NC(=O)CNC2=O)CC1` [CBK292124], the figure is 103%. Regarding `O=C1NCCNC(=O)C2(C/C=C/COc3ccccc31)CCCN(Cc1cscn1)C2` (centres unmarked) [CBK292125], the viability at 28.5 h, 10 µM amounted to 92.2%. On to `O=C1COc2ccccc2C/C=C/CC2(CCN(Cc3cncnc3)CC2)CN1` [CBK292130], for which the viability at 28.5 h, 10 µM is 112%. As to `CC(=O)N1CCC2(CCCC[C@H]3CN(C(C)C)CC[C@@H]3NC(=O)CNC2=O)CC1` [CBK292133], the viability at 28.5 h, 10 µM is 102%.

On to `COCCN1CC[C@@H]2[C@@H](C/C=C/Cc3ccccc3OCC(=O)N2C)C1` [CBK292134], for which the viability at 28.5 h, 10 µM is 98%. As to `O=C1COc2ccccc2C/C=C/CC2(CCCN(C(=O)CCN3CCCC3)C2)CN1` (centres unmarked) [CBK292136], the viability at 28.5 h, 10 µM was 102%.

`CC(=O)N1CC[C@H]2NC(=O)CNC(=O)C3(CCCC[C@H]2C1)CCN(C(=O)CCn1ccnc1)CC3` [CBK292138]: the viability at 28.5 h, 10 µM worked out at 111%. With `O=C1N[C@@H]2CCN(CC(=O)N3CCCC3)C[C@@H]2CCCCCOc2ccccc21` [CBK292141], the viability at 28.5 h, 10 µM is 107%.

As for `O=C1CNC(=O)C2(C/C=C/C[C@H]3COCC[C@H]3N1)CCN(C(=O)C1CCOCC1)CC2` [CBK292143], the viability at 28.5 h, 10 µM stood at 84.9%. In the case of `CN1C(=O)c2ccccc2OCCCCC[C@H]2[C@@H]1CCCN2C(=O)CN1CCN(CCO)CC1` [CBK292144], the viability at 28.5 h, 10 µM worked out at 99%. In the case of `O=C1COc2ccccc2C/C=C/C[C@H]2CN(C(=O)CN3CCN(CCO)CC3)CC[C@H]2N1` [CBK292146] it was 110%; in that of `CC(=O)N1CCC2(C/C=C/C[C@H]3CN(CC(N)=O)CC[C@H]3NC(=O)CNC2=O)CC1` [CBK292148], 97.6%.

Turning to `O=C1COc2ccccc2C(=O)N[C@@H]2CCOC[C@@H]2C/C=C/C[C@H]2[C@H](CCCN2CCO)N1` [CBK292149], the viability at 28.5 h, 10 µM came to 106%. As for `CN1C(=O)COc2ccccc2CCCC[C@@H]2[C@H]1CCCN2C(=O)CCn1ccnc1` [CBK292150], the viability at 28.5 h, 10 µM turned out to be 96.6%. As for `O=C1COc2ccccc2C/C=C/CC2(CCN(C(=O)Cc3cccnc3)CC2)C(=O)NCCN1` [CBK292153], the figure is 110%; as for `Cc1cc(C(=O)N2CCC3(C/C=C/CCOc4ccccc4C(=O)NCCCNC3=O)CC2)no1` [CBK292155], 92.6%; as for `O=C1CNC(=O)C2(C/C=C/C[C@H]3COCC[C@H]3N1)CCN(Cc1ccc(F)cn1)CC2` [CBK292160], 110%. For the compound `O=C1CNC(=O)C2(C/C=C/C[C@H]3COCC[C@H]3N1)CCN(C(=O)c1ccc(=O)[nH]n1)CC2` [CBK292161], the viability at 28.5 h, 10 µM stood at 110%. Regarding `CC(=O)N1CCC2(CCCC[C@H]3CN(CC(=O)N(C)C)CC[C@@H]3NC(=O)CNC2=O)CC1` [CBK292163], the viability at 28.5 h, 10 µM was 94.6%.

Consider `CC(=O)N1CCC[C@H]2NC(=O)CNC(=O)C3(C/C=C/C[C@H]21)CCN(Cc1cc[nH]n1)CC3` [CBK292164], for which the viability at 28.5 h, 10 µM came out at 103%.

As to `O=C1COc2ccccc2CCCCC2(CCCNC2)CN1` (centres unmarked) [CBK292166], the viability at 28.5 h, 10 µM stood at 90.5%. Turning to `CC(=O)N1CCC2(C/C=C/C[C@H]3CN(Cc4nccs4)CC[C@H]3NC(=O)CNC2=O)CC1` [CBK292169], the viability at 28.5 h, 10 µM worked out at 111%. On to `COCCOCC(=O)N1CCC2(C/C=C/C[C@H]3COCC[C@H]3NC(=O)CNC2=O)CC1` [CBK292170], for which the viability at 28.5 h, 10 µM is 105%.

`CC(=O)N1CC[C@H]2NC(=O)CNC(=O)C3(CCCC[C@H]2C1)CCN(C(=O)c1ccc(C)nc1)CC3` [CBK292172]: the viability at 28.5 h, 10 µM was determined as 94.7%. In the case of `CC(=O)N1CCC[C@H]2NC(=O)CNC(=O)C3(C/C=C/C[C@H]21)CCN(C(=O)CCC(=O)O)CC3` [CBK292174] it was 85%; in that of `CN1CCOc2ccccc2C(=O)NC/C=C/CC2(CCCN(Cc3cc[nH]n3)C2)C1=O` (centres unmarked) [CBK292175], 103%.

As for `CC(=O)N1CCC[C@H]2NC(=O)CNC(=O)C3(C/C=C/C[C@H]21)CCN(C(=O)c1cc(C)no1)CC3` [CBK292176], the viability at 28.5 h, 10 µM turned out to be 104%. As for `Cn1ccc(C(=O)N2CCCC3(C/C=C/Cc4ccccc4OCC(=O)NC3)C2)cc1=O` (centres unmarked) [CBK292179], the viability at 28.5 h, 10 µM came out at 107%. As for `CN1C(=O)COc2ccccc2CCCC[C@@H]2[C@H]1CCCN2C(=O)CCCn1cncn1` [CBK292182], the viability at 28.5 h, 10 µM worked out at 95.3%.

Take `O=C1NC[C@@H](Cc2ccccc2)NC(=O)C2(C/C=C/COc3ccccc31)CCN(C(=O)CN1CCCC1)CC2` [CBK292184]: the viability at 28.5 h, 10 µM came out at 103%. For the compound `CC(=O)N[C@H](C(=O)N1CC[C@@H]2NC(=O)[C@@H](Cc3ccccc3)NC(=O)C3(C/C=C/C[C@@H]2C1)CCOCC3)[C@@H](C)O` [CBK292186], the viability at 28.5 h, 10 µM was found to be 96.9%. With `Cc1ncsc1C(=O)N1CCC2(C/C=C/C[C@H]3COCC[C@H]3NC(=O)[C@@H](CC(C)C)NC2=O)CC1` [CBK292187], the viability at 28.5 h, 10 µM was found to be 107%. Turning to `CN1CC(=O)N2CCOC(C2)c2cccc(n2)NC(=O)C/C=C/CC2(CCN(c3ncccn3)CC2)C1=O` (centres unmarked) [CBK292188], the viability at 28.5 h, 10 µM worked out at 95.2%. On to `CC(=O)N[C@@H](Cc1ccccc1)C(=O)N1CC[C@H]2NC(=O)[C@H](Cc3ccccc3)NC(=O)C3(C/C=C/C[C@@H]2C1)CCOCC3` [CBK292190], for which the viability at 28.5 h, 10 µM amounted to 82.2%. As for `CC(C)C[C@@H]1NC(=O)C2(C/C=C/C[C@@H]3COCC[C@@H]3NC1=O)CCN(C(=O)[C@H](CO)NC(=O)OCc1ccccc1)CC2` [CBK292191], the viability at 28.5 h, 10 µM amounted to 102%. `O=C1NC[C@@H](Cc2ccccc2)NC(=O)C2(C/C=C/COc3ccccc31)CCN(Cc1ncccc1F)CC2` [CBK292193]: the viability at 28.5 h, 10 µM was found to be 111%. As for `CN1CC(=O)N2CCOC(C2)c2cccc(n2)NC(=O)C/C=C/CC2(CCN(Cc3ncc[nH]3)CC2)C1=O` (centres unmarked) [CBK292196], the figure is 103%; as for `CC(=O)N[C@H](C(=O)N1CCC2(C/C=C/C[C@H]3COCC[C@H]3NC(=O)[C@@H](CC(C)C)NC2=O)CC1)[C@@H](C)OC(C)(C)C` [CBK292197], 90.7%.

As to `CC(=O)N[C@@H](C(=O)N1CC[C@@H]2NC(=O)[C@@H](Cc3ccccc3)NC(=O)C3(C/C=C/C[C@H]2C1)CCOCC3)C(C)C` [CBK292198], the viability at 28.5 h, 10 µM came to 97.1%.

As to `NC(=O)CC[C@H](N)C(=O)N1CC[C@@H]2NC(=O)[C@H](Cc3ccccc3)NC(=O)C3(C/C=C/C[C@@H]2C1)CCOCC3` [CBK292199], the viability at 28.5 h, 10 µM stood at 109%. For the compound `CC(=O)N[C@H](C(=O)N1CC[C@H]2NC(=O)[C@@H](Cc3ccccc3)NC(=O)C3(C/C=C/C[C@H]2C1)CCOCC3)[C@@H](C)OC(C)(C)C` [CBK292203], the viability at 28.5 h, 10 µM stood at 103%. With `CC(=O)N1C[C@H](O)C[C@H]1C(=O)N1CC[C@H]2NC(=O)[C@H](Cc3ccccc3)NC(=O)C3(C/C=C/C[C@H]2C1)CCOCC3` [CBK292204], the viability at 28.5 h, 10 µM came to 88.7%. For the compound `CC(=O)N[C@H](Cc1c[nH]c2ccccc12)C(=O)N1CC[C@H]2NC(=O)[C@H](Cc3ccccc3)NC(=O)C3(C/C=C/C[C@H]2C1)CCOCC3` [CBK292205], the viability at 28.5 h, 10 µM worked out at 89.9%. Consider `CC(=O)N[C@H](CC(N)=O)C(=O)N1CCC2(C/C=C/C[C@@H]3COCC[C@@H]3NC(=O)[C@@H](CC(C)C)NC2=O)CC1` [CBK292207], for which the viability at 28.5 h, 10 µM was found to be 106%.

As to `CC(=O)Nc1ccc(OC(=O)c2ccc(Br)o2)cc1` [CBK293917], the viability at 28.5 h, 10 µM is 112%. In the case of `O=[N+]([O-])c1ccc(/C=N/c2cccc(-c3nc4ccccc4s3)c2)cc1` [CBK293918] it was 91.4%. In the case of `O=C1CCCCCC1C(Nc1ccc2ccccc2c1)c1cccnc1` (centres unmarked) [CBK293919] it was 86.4%; in that of `CC(C)COC(=O)CCNc1n[nH]c(=O)[nH]c1=O` [CBK293920], 86.2%; in that of `O=C(Nc1ccccc1-c1nc2ccccc2[nH]1)c1ccc2c(c1)OCCO2` [CBK293924], 104%. Take `COc1ccc(Nc2cc(-n3nc(C)cc3-c3ccccc3)ncn2)cc1` [CBK293925]: the viability at 28.5 h, 10 µM is 104%.

Turning to `CCC(=O)NC(c1ccc(OC)c(OC)c1)c1ccc2cccnc2c1O` (centres unmarked) [CBK293926], the viability at 28.5 h, 10 µM worked out at 78%. In the case of `Fc1ccc(CSc2nnnn2-c2ccc3c(c2)OCO3)cc1` [CBK293927] it was 85.2%. Take `O=[N+]([O-])c1cc(Nc2ncnc3ccccc23)cc(Oc2ccccc2)c1` [CBK293928]: the viability at 28.5 h, 10 µM was 90.3%. Consider `Cc1ccc(NC2CC(C)N(C(=O)c3cccc([N+](=O)[O-])c3)c3ccc(C)cc32)cc1` (centres unmarked) [CBK293929], for which the viability at 28.5 h, 10 µM amounted to 86.5%.
